Experiment [1] concerns PBAD. The experiment in a line: GFP expression from bacterial vector within infected J774A1 cells, two colour flow cytometry. Type of experiment: cell-based, murine. The settings on record: SL7207[pHL238] in J774A1 cells, L-arabinose 4 mM, 40 mM, 400 mM in medium, 3 hours. As for the experimental part:
The murine macrophage cell line J774A1 was infected with bacterial vector SL7207[pHL238] of Example 1. Before infection, cells were seeded to 2×10^6 cells per well in a 6-well plate in antibiotic-free medium (IMDM with 10% inactivated fetal calf serum, 2 mM glutamine) and grown for one day in a 5% CO2 atmosphere at 37° C. For infection, SL7207[pHL238] were grown from a glycerol stock overnight at 37° C. on a LB plate supplemented with antibiotics, followed by cultivation in liquid LB medium supplemented with antibiotics for approximately 2 hours at 37° C., shaking at 60 rpm. Bacteria were harvested by centrifugation, washed in PBS, resuspended in cell culture medium and added at a ˜MOI of 10. 30 min after start of infection cells were washed twice with PBS before medium containing gentamycin (50 μg/mL) was added to kill extracellular bacteria. […] GFP expressing bacteria in the lysates were monitored by flow cytometry. In order to differentiate fluorescence of GFP expressing bacteria from autofluorescent cell fragments the so-called two colour flow cytometry method was used (Bumann, Infect. Immun. (2001) 69, 4618-4626.). The analytical results are depicted in FIG. 3, with unspecific background fluorescence substracted. […]

Experiment [2] concerns PBAD. As to the kind of experiment: Induction of plasmid replication in bacterial vector within infected J774A1 cells (GFP read-out). The settings on record: SL7207[pAEN17] in J774A1 cells, L-arabinose 4 mM, 40 mM, 400 mM, 3 hours. Type of experiment: cell-based, murine. As for the experimental part:
J774A1 cells, a murine macrophage cell line, were infected with strain SL7207[pAEN17], as described in Example 2. 4 hours after infection, different amounts of L-arabinose were added into individual wells of infected J774A1 cells up to a concentration in the medium of 4 mM, 40 mM and 400 mM, respectively. 3 hours after addition of L-arabinose cells were treated with 0.25% Triton X-100. Bacteria in the lysates were monitored for GFP expression by flow cytometry as described in Example 2. The analytical results are depicted in FIG. 7, with unspecific background fluorescence substracted.

In experiment [3] the test system is SL7207 bearing the plasmid of FIG. 8. As to the kind of experiment: Induced lysis (gene E) of bacterial vector within infected J774A1 cells, CFU. As to conditions: SL7207 with gene E plasmid pHL241, induction period 3 hours. Format: cell-based, Salmonella enterica serovar Typhimurium. As for the experimental part: The plasmid pHL241 shown in FIG. 8 was derived from plasmid pHL238 shown in FIG. 1 by exchanging gene gfp against gene E.
For infection, J774A1 cells were cultured and infected with SL7207 bearing the plasmid of FIG. 8 according to the procedure of Example 2. Induction was by addition of L-arabinose to the final concentrations in cell culture medium as given in FIG. 9, for an induction period of 3 hours. Following induction, cells were harvested and lysed by addition of Triton X-100 to a concentration of 1 g/L. For re-isolation, intracellular bacterial vectors were plated on LB-agar containing ampicillin for quantification of viable bacteria as colony forming units (CFU).

Experiment [4] concerns CT26 tumor. As to the kind of experiment: Vector with gene E under Prha and lux under PBAD plus TNFalpha in CT26 tumor mice. Type of experiment: in vivo, Balb/c mice. From the text:
As an example for multifunctional bacterial vectors for use in the pharmaceutical combination according to the invention, vaccine strain SL7207 was genetically manipulated by Tn7 mediated chromosomal integration of the mini-transposon of a plasmid pHL260b, modified from pHL260a by replacing the PBAD promoter by the L-rhamnose inducible promoter (Prha), derived from plasmid pJOE2702 (Stumpp et al., Biospektrum 6, 33-36(2000)). This strain chromosomally contains at least one copy of gene E of bacteriophage phiX174 under the control of the rhamnose inducible promoter (Prha). The resultant strain was then transformed with plasmid pTNFa-lux, containing the bioluminescence operon of Photorhabdus luminescence under control of the PBAD promoter in combination with the mouse TNFalpha gene under the control of the constitutive promoter from beta-lactamase (Pbla).
As described in Example 8, Balb/c mice bearing a CT26 tumor were administered 5×10^6 bacterial vector, suspended in PBS by intravenous administration. […] Upon administration of 120 mg L-arabinose dissolved in PBS intraperitoneally, to the same mice 1 day later, as well as on consecutive days, colonization of tumor tissue by bacterial vectors was monitored by spectrometry, more specifically luminometric analysis of anesthesized mice using a CCD camera.

The test system of experiment [5] is PBAD. The experiment in a line: In vivo GFP expression from bacterial vector re-isolated from spleen of infected mice. Details: species or system Balb/c mice. The settings on record: SL7207[pHL238] i.v., L-arabinose i.v. after 2 days, spleen 4 hours later. As for the experimental part: Balb/c mice were infected intravenously with a dose of ca. 5×10^6 bacteria in PBS of bacterial vector SL7207[pHL238]. After 2 days, different amounts of L-arabinose dissolved in PBS were administered intravenously into mice. 4 hours after L-arabinose administration mice were sacrificed, spleens were removed, homogenized in PBS containing 0.1% Triton X-100 and lysates were analyzed by two colour flow cytometry.

For experiment [6], the system named is PBAD. The experiment in a line: In vitro regulation of copy number of plasmid pAEN17 (GFP read-out) in bacterial culture. Format: cell-based, Salmonella enterica serovar Typhimurium. The settings on record: addition of L-arabinose, trfA under PBAD acting on oriV. From the text: In the absence of L-arabinose, just one copy of this plasmid per bacterial cell is maintained, regulated by the origin of replication derived from the F plasmid of Escherichia coli. In addition, this plasmid contains the inducible origin of replication of plasmid RK2, namely oriV. The replicase gene trfA, acting on this origin, is placed under the control of PBAD, as an example for a saccharide inducible promoter.
In order to allow for a convenient analysis of plasmid replication, GFP was placed under control of the weak constitutive Pbla promoter derived from the bla gene, also contained on said vector. The recombinant strain SL7207[pAEN17] was grown into logarithmic phase and either no or 0.1% L-Arabinose was added into bacterial cultures.

Experiment [7] has as its system PBAD. As to the kind of experiment: GFP expression from plasmid pHL238 in bacterial culture after induction, flow cytometry. Type of experiment: cell-based, Salmonella enterica serovar Typhimurium. As to conditions: induction by L-arabinose, vector SL7207[pHL238]. From the text:
As an example for a structural gene, plasmid pHL238 (schematically depicted in FIG. 1) comprising the structural gene for green fluorescent protein (GFP) under the control of PBAD was cloned, further comprising the structural gene for the regulator of PBAD, araC under the control of its own promoter Pc, along with the Ampicillin resistance gene as a selection marker, and a high copy number origin of replication from pUC. Regulatory elements originate from plasmid pBAD18 (Guzman et al., J. Bacteriol. 1995 July; 177(14):4121-30)
This bacterial vector is based on Salmonella enterica serovar Typhimurium, strain SL7207, which is a known attenuated invasive salmonella strain in use for experimental vaccination. The salmonella strain was transformed with plasmid pHL238 by electroporation, transformed colonies were selected on LB-medium agar plates containing streptomycin at 30 μg/mL and ampicillin at 100 μg/mL. The resultant transformed strain was bacterial vector SL7207[pHL238]. […] Results are shown in FIG. 2, the thick line for addition of L-arabinose, the thin line without L-arabinose.
Background: A flow cytometer gives signals particle by particle.

The subject of experiment [8] is CT26 tumor. As to the kind of experiment: In vivo colonization and luciferase transgene induction in CT26 tumor-bearing mice. The arrangement: species or system Balb/c mice. From the text: As a representative for a transgene, the luciferase gene from the firefly Photinus pyralis was used as the reporter gene. As the saccharide inducible promoter element, PBAD from the L-arabinose operon of E. coli was functionally linked to the luciferase gene, the promoter element further being in conjunction with the structural gene for its regulator protein araC under the control of its natural own promoter (PC). The bacterial vector was generated by transforming Salmonella enterica serovar Typhimurium, vaccine strain SL7207, with the plasmid containing the transgene under the control of the saccharide inducible promoter by electroporation.
As an example for an animal having a tumor, Balb/c mice were subcutaneously inoculated abdominally with 10^6 cells of the colon adenocarcinoma cell line CT26. After this tumor generation treatment, mice bearing tumors of approximately 400-600 mm^3 were intravenously injected with 5×10^6 bacteria of the above bacterial vector (SL7207[pHL259]), representing the first component of the pharmaceutical combination, suspended in phosphate buffered saline (PBS). Three days post infection, L-arabinose as the appropriate inductor saccharide, representing the second component of the pharmaceutical combination, was administered intraperitoneally, dissolved in PBS. Subsequently, mice were sacrificed and the tumors, spleens and livers dissected, then transferred into 3 mL of sterile, ice-cold PBS containing 0.1% (vol/vol) Triton X-100.
Tissues were disrupted in a Polytron PG3000 homogenizer (Kinematica, Littau, Switzerland). Homogenates were diluted in PBS and streaked on medium plates with selective antibiotic (ampicillin). Colonies were counted after incubation of plates. As a result, the number of bacteria in respective tissues could be calculated by counting the resulting colony forming units (cfu) for each organ.
The induction of the transgene was determined by measurement of the reporter gene (luciferase) activity from tissue homogenates after dilution (1:1) in 2× luciferase assay lysis buffer (50 mM tris-HCl, 4 mM DTT, 20% (vol/vol) glycerol, 2% (vol/vol) Triton X-100, 2 mg/mL lysozyme, pH 8.3), incubation at 25° C. for 10 minutes, centrifugation at 3,000×g for 3 minutes, 10 μL supernatant were added to 100 mL LARII reagent of the luciferase assay system according to the manufacturer's instructions (Promega, Mannheim, Germany). Luminescence intensity was measured spectrometrically in a luminometer (Lumat LB9507, Berthold, Pforzheim, Germany). Dilution was taken into account when calculating RLU per organ.

As to `O=C[C@H](O)[C@@H](O)[C@@H](O)CO` [L-arabinose], the “fluorescence intensity of GFP” value in experiment [1] and in experiment [2] was “increases with increasing concentrations of L-arabinose” in each case. Besides, the “number of viable bacterial vectors inside infected J774A1 cells (CFU)” value in experiment [3] is reported as “drastically decreases the number of viable bacterial vectors”. Further, the “bioluminescence from lux operon under PBAD” value in experiment [4] (120 mg L-arabinose i.p., repeated administration after L-rhamnose) was “bioluminescence”. Besides, the “expression of GFP by bacteria recovered from infected animals” value in experiment [5] is “induced by L-Arabinose in a dose-dependent manner”. Further, the “copy number of the plasmid pAEN17” value in experiment [6] is reported as “increased copy number”. For the same compound, the “GFP fluorescence relative to background without induction” value in experiment [7] is “more than two orders above the background fluorescence”. Also, the “induction of transgene expression (luciferase, RLU)” value in experiment [8] (L-arabinose i.p. three days post infection, tumor, spleen, liver) was “induces transgene expression for all tissues tested”. In addition, in experiment [8] (spleen and liver), the “transgene activity in spleen and liver” value is listed as “very low to about background levels”. For the same compound, in experiment [8] (tumor tissue), the “time of main transgene activity past administration of the inductor saccharide” value is on record as “about 6 hours”. Besides, in experiment [8] (tumor, spleen, liver), the “absolute transgene activity, comparison of tissues” value was “greatest in tumor tissue”.
Turning to `C[C@H](O)[C@H](O)[C@@H](O)[C@@H](O)C=O` [L-rhamnose], the “lysis of bacterial vector and release of TNFalpha” value in experiment [4] (120 mg L-rhamnose i.p. 3 days after vector i.v.) is “lysis of bacterial vector and release of TNFalpha was observed”.

The values above are taken from US8093025B2, “Bacterial vector” (Helmholtz-Zentrum fuer Infektionsforschung GmbH, priority 2004, dated 2012).
